Reference: patent US20260007679A1, “METHODS OF TREATING CANCER USING 3-(4-((4-(MORPHOLINOMETHYL)BENZYL)OXY)-1-OXOISOINDOLIN-2-YL)PIPERIDINE-2,6-DIONE” (Celgene Corporation, priority 2012, published 2026)
Read-outs that look alike come from different tables or passages of the source.

Columns and labels:
Type in all cases: cell-based
[1] = system: anti-CD3-stimulated human T cells; assay: Cytokine production by T cells (multi-plex CBA); settings: for IL-10 production at high concentration: >10 nM; for concentrations that enhanced IL-2, IL-3, IL-5, IL-10, IL-13, GM-CSF, IFN-γ, TNF-α and RANTES: for compound I RANTES at 10 nM
Experimental: T cells were isolated from buffy coat by negative selection using the RosetteSep® T Cell Enrichment Cocktail. The manufacturer's procedures were followed accordingly. All 96-well plates were pre-coated with […] anti-human CD3 antibody in 100 μl 1×PBS for 4 hours at 37° C. The plates were washed three times with RPMI-1640 Complete Media prior to the T cell assay. T cells were then plated in CD3 pre-coated plates at a density of 2.5×10^5 cells/well in 180 μl RPMI-1640 Complete Media. The cells were treated with 20 μl 10× titrated compounds at 10, 1, 0.1, 0.01, 0.001, 0.0001 and 0.00001 μM. Final DMSO concentrations were 0.25%. The plates were incubated for 48 hours at 37° C., 5% CO2. After 48 hours, the supernatants were harvested and tested by a multi-plex cytometric bead array (CBA) assay for the following cytokines/chemokines: IL-2, IL-3, IL-5, IL-10, IL-13, IL-15, IL-17a, GM-CSF, G-SCF, IFN-γ, TNF-α and RANTES. The CBA plates were analyzed on the Luminex IS100 instrument. Data from each donor was graphed using GraphPad Prism 5.0 software and expressed as mean pg/mL±SEM and % of DMSO control±SEM.

[2] = system: human peripheral blood mononuclear cells; assay: Cytokine profiling in LPS-stimulated hPBMC; settings: for IL-10 (% of control) / MCP-1 (% of control) / RANTES (% of control): 0.1 μM concentration; for IC50: Homo sapiens, PBMC, 18 h, LPS 1 ng/ml, 18 hours
Experimental: Fifty ml human buffy coat was aliquoted 25 ml each into two 50 ml conical tubes and 25 ml sterile HBSS was added to each conical tube. The tubes were gently mixed by inverting. Fifteen ml of room temperature Ficoll-Paque Plus (GE Healthcare (location); cat #17-1440-02) was aliquoted into four 50 ml conical tubes. Then 25 ml of the Buffy coat/IBSS mixture was layered gently and slowly on top of the Ficoll. The samples were centrifuged at 450 rpm for 35 minutes. The top layered containing plasma was pipetted off and discarded. The interface containing mononuclear cells was transferred into two 50 ml conical tubes. Both conical tubes were filled to total volume of 50 ml with HBSS and centrifuged at 1200 rpm for 10 minutes. The cells were washed again in HBSS and spun at 1000 rpm for 10 minutes. Cell pellet was resuspended with 20 ml RPMI complete medium (RPMI/5% human sera/1× pen/strep/glut) and counted.
One hundred μl (2×10^6/ml) of hPBMCs were added to each well of a 96 well flat-bottom plate (final cell count=2×10^5/well) and incubated at 37° C. for 1 hour. Twenty μl (10×) compound was added to each test well and twenty μl medium containing 2.5% DMSO was added to each control well ([DMSO]final=0.25%) and plate was incubated for 1 hour at 37° C. Cells were then stimulated with 80 μl of 2.5 ng/ml LPS ([LPS]final=1 ng/ml) and incubated for 18 hours at 37° C. Fifty μl supernatant from each well was transferred into 3 new round-bottomed 96 well plates and stored at −20° C. for Luminex analysis. Duplicate wells were performed for each sample.
Supernatant samples were analyzed for cytokines in multiplex format according to the manufacturer's instructions (Millipore, Billerica, Ma 01821) using a Luminex IS100 instrument. IL-12 and GM-CSF analyses were done in a two-plex format using neat supernatants while all other cytokines were done in a multiplex format using supernatants diluted 1:20. Data analysis was performed using Upstate Beadview software. […] The IC50 were performed using GraphPad Prism v5.00. The data values represent the mean+SEM (standard error of the mean) of n (number of experiments in duplicate).

[3] = system: Human umbilical vascular endothelial cells; assay: Growth factor-induced HUVEC proliferation assay; settings: for IC50: Homo sapiens, Endothelial cell
Experimental: Human Umbilical Vascular Endothelial Cells Proliferation Assay: Human umbilical vascular endothelial cells were thawed and grown in EGM2 medium until passage 3 to 6 for all proliferation assays. Human umbilical vascular endothelial cells were trypsinized, washed with 20% FBS/M199 medium and plated with the same medium at 10^4 cells/100 μL per well to 96-well cell culture plates. The plates were incubated overnight at 37° C. to allow cells to adhere. The cells were then starved in 1% FBS/M199 medium for 18 hours after washing with the same medium 3 times. For optimization of the concentration of the growth factors in the HUVEC proliferation assay, 100 µL/well of the 2× serial diluted growth factors, starting at 100 ng/mL, were added to HUVECs in duplicate for 72 hours at 37° C. in a humidified cell culture incubator with 5% CO2. For analysis of test compounds, a serial dilution of the test compounds in 0.4% DMSO/1% FBS/M199 medium in duplicate was made from the 10 mM stock. Fifty microliters per well of the serially diluted test compounds (10, 1.0, 0.1, 0.01, 0.001, 0.0001, 0.00001 μM) were added to the cells for 1 to 2 hours at 37° C. The final DMSO concentration in the cells is 0.1%. Then 50 μL of 4× final concentration of relative growth factors was added to each well in duplicate for 72 hours at 37° C. in a humidified cell culture incubator with 5% CO2. Thymidine incorporation was measured by adding one microcurie of 3H-thymidine (Amersham) in 20 μL medium to each well and incubated at 37° C. in a humidified cell culture incubator with 5% CO2 for 5 to 6 hours. The cells were then trypsinized and harvested onto UniFilter GF/C filter plates (Perkin Elmer) by using the cell harvester (Tomtec). After the plates were air dried, 20 μL/well of Microscint 20 (Packard) was added then the plates were analyzed in TopCount NXT (Packard). Each well was counted for one minute. The experiments were performed in duplicate in each of 3 donors.
The percentage inhibition of cell proliferation, tube formation, migration, and invasion was calculated by subtracting the result for unstimulated DMSO control from test sample results, averaging all replicates, and normalizing to the growth factor-stimulated DMSO control (0% inhibition). The IC50 values were calculated by using GraphPad Prism 5.0.

[4] = read-out: GM-CSF production IC50
[5] = read-out: IL-1β production IC50
[6] = read-out: MIP-1α production IC50
[7] = read-out: MIP-1β production IC50
[8] = read-out: TNF-α production IC50
[9] = read-out: bFGF (10 ng/mL) IC50 Values, bFGF-induced proliferation
[10] = HGF-induced proliferation, read-out: HGF (25 ng/mL) IC50 Values
[11] = VEGF-induced proliferation, read-out: VEGF (25 ng/mL) IC50 Values

Structure (SMILES): O=C1CCC(N2Cc3c(OCc4ccc(CN5CCOCC5)cc4)cccc3C2=O)C(=O)N1 (racemic) [Compound I, 3-(4-((4-(morpholinomethyl)benzyl)oxy)-1-oxoisoindolin-2-yl)piperidine-2,6-dione]
- concentration at which enhancement of IL-5 production peaked [1]: 1 nM
- GM-CSF production, times those of control cells ([1]; 1 nM): 3 times
- IL-2 production, times those of control cells ([1]; 1 nM): 7 times
- IL-5 production, times over that of control cells ([1]; 1 nM): 6 times
- IL-13 production, times those of control cells ([1]; 1 nM): 5 times
- GM-CSF production, times those of control cells ([1]; 10 nM): 6 times
- IL-2 production, times those of control cells ([1]; 10 nM): 22 times
- IL-5 production enhancement ([1]; 10 nM): ≤ 2 fold
- IL-13 production, times those of control cells ([1]; 10 nM): 6.5 times
- IL-10 production at high concentration [1]: inhibited
- IL-10 (% of control) [2]: 372 % of control
- MCP-1 (% of control) [2]: 208 % of control
- RANTES (% of control) [2]: 153 % of control
- IC50 [2, 4]: 9.2 nM
- IC50 [2, 5]: 0.85 nM
- IC50 ([2]; read-out: IL-6 production IC50): 10 nM
- IC50 ([2]; read-out: IL-8 production IC50): > 10000 nM
- IC50 ([2]; read-out: MDC production IC50): 2.6 nM
- IC50 [2, 6]: 190 nM
- IC50 [2, 7]: > 10000 nM
- IC50 [2, 8]: 1.8 nM
- inhibition of VEGF-, bFGF-, or HGF-induced HUVEC proliferation [3]: did not inhibit
- IC50 [3, 9]: 99000 nM
- IC50 [3, 10]: 24000 nM
- IC50 [3, 11]: > 100000 nM
- concentrations with significant enhancement of proliferation ([3]; bFGF-treated HUVECs): 0.01 to 1 µM

Structure (SMILES): O=C1CC[C@@H](N2Cc3c(OCc4ccc(CN5CCOCC5)cc4)cccc3C2=O)C(=O)N1 [Compound I-R, (R)-3-(4-((4-(morpholinomethyl)benzyl)oxy)-1-oxoisoindolin-2-yl)piperidine-2,6-dione]
- GM-CSF production, times those of control cells ([1]; 10 nM): 6 times
- IL-2 production, times those of control cells ([1]; 10 nM): 15 times
- IL-13 production, times those of control cells ([1]; 10 nM): 7 times
- IL-10 production enhancement ([1]; 0.01 to 1 nM): ~6 fold
- IL-5 production, times that of control cells ([1]; 1 to 100 nM): up to 2.5 times
- IL-10 production at high concentration [1]: inhibited
- concentrations that enhanced IL-2, IL-3, IL-5, IL-10, IL-13, GM-CSF, IFN-γ, TNF-α and RANTES [1]: ≥ 1 nM
- IL-10 (% of control) [2]: 442 % of control
- MCP-1 (% of control) [2]: 223 % of control
- RANTES (% of control) [2]: 151 % of control
- IC50 [2, 4]: 39 nM
- IC50 [2, 5]: 6.2 nM
- IC50 ([2]; read-out: IL-6 production IC50): 83 nM
- IC50 ([2]; read-out: IL-8 production IC50): > 10000 nM
- IC50 ([2]; read-out: MDC production IC50): 12 nM
- IC50 [2, 7]: > 10000 nM
- IC50 [2, 8]: 9.5 nM
- inhibition of VEGF-, bFGF-, or HGF-induced HUVEC proliferation [3]: did not inhibit
- IC50 [3, 9]: 76000 nM
- IC50 [3, 10]: 38000 nM
- IC50 [3, 11]: > 100000 nM

Structure (SMILES): O=C1CC[C@H](N2Cc3c(OCc4ccc(CN5CCOCC5)cc4)cccc3C2=O)C(=O)N1 [Compound I-S, (S)-3-(4-((4-(morpholinomethyl)benzyl)oxy)-1-oxoisoindolin-2-yl)piperidine-2,6-dione]
- concentration at which enhancement of IL-5 production peaked [1]: 1 nM
- IL-5 production, times over that of control cells ([1]; 1 nM): 6 times
- GM-CSF production, times those of control cells ([1]; 10 nM): 5 times
- IL-2 production, times those of control cells ([1]; 10 nM): 18 times
- IL-13 production, times those of control cells ([1]; 10 nM): 7 times
- IL-10 production at high concentration [1]: inhibited
- concentrations that enhanced IL-2, IL-3, IL-5, IL-10, IL-13, GM-CSF, IFN-γ, TNF-α and RANTES [1]: ≥ 1 nM
- IL-10 (% of control) [2]: 379 % of control
- MCP-1 (% of control) [2]: 233 % of control
- RANTES (% of control) [2]: 153 % of control
- IC50 [2, 4]: 2.2 nM
- IC50 [2, 5]: 0.46 nM
- IC50 ([2]; read-out: IL-6 production IC50): 3.8 nM
- IC50 ([2]; read-out: IL-8 production IC50): > 10000 nM
- IC50 ([2]; read-out: MDC production IC50): 2.1 nM
- IC50 [2, 6]: 28 nM
- IC50 [2, 7]: > 10000 nM
- IC50 [2, 8]: 0.59 nM
- inhibition of VEGF-, bFGF-, or HGF-induced HUVEC proliferation [3]: did not inhibit
- IC50 [3, 9]: 52000 nM
- IC50 [3, 10]: 51000 nM
- IC50 [3, 11]: > 100000 nM
- concentrations with significant enhancement of proliferation ([3]; VEGF-treated HUVECs): 1 to 10 µM
